Laboratory results published in EP1215499A1 (priority 1999, dated 2001).
*1 amine or outer side, *2 acyl side, *3 side chain or, on linkers, in order; H or OH if unused. Where a SMILES comes first, the peptide text is derived from it. [ ]: non-standard residue; d: D form. The star is where a group is joined. Sta = CC(C)C[C@H](N)[C@@H](O)CC(=O)O; AMC = Cc1cc(=O)oc2cc(N*)ccc12; Suc = O=C(CCC(=O)[*:2])[*:1]; Isovaleryl = CC(C)CC(=O)*; Boc = CC(C)(C)OC(=O)*

Legend:
Format in all cases: biochemical
[1] = target: T1, miniplasmin (Homo sapiens, UniProt P00747); assay: biochemical
T1 construct: 38kDa (Kringle 5 + L chain); the 12kDa protein of human miniplasmin includes a kringle 5 that begins with V^441; host or cells: no expression host
T1 sequence (P00747 481-560): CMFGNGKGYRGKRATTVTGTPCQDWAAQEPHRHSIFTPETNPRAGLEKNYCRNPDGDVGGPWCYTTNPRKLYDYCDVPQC
T1 sequence (P00747 581-810): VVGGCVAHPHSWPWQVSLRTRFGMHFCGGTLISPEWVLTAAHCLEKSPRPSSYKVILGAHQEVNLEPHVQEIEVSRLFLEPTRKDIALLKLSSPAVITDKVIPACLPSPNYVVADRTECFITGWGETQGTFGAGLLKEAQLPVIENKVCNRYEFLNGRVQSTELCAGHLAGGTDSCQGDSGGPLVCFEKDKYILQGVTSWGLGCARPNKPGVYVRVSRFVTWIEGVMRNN

[2] = target: T1, miniplasmin
[3] = target: T1, miniplasmin; assay: Substrate specificity of human miniplasmin (cleavage of fluorescent MCA synthetic substrates); conditions: for Activity (mU/ml): cleavage of the named substrate by human miniplasmin; for cleaving activity of miniplasmin toward the substrate: result in words
Protocol: 2. […] Miniplasmin cut the bond after Arg.
Nor did it toward Bz-Arg-MCA, a synthetic substrate for cathepsin B, which is one of lysosomal enzymes.
The activity of miniplasmin was quantified by defining the enzyme activity that can degrade […] of the synthetic substrate Boc-Glu-Ala-Arg-MCA in 1 minute as 1 unit.

[4] = target: T1, miniplasmin; assay: as above; conditions: Boc-Gln-Ala-Arg-MCA = 100%

N=C(N)c1ccccc1 [Benzamidine]
inhibition mark (circle / double circle) [1]: ○ Benzamidine
activity at 10 µM ([1]; read-out: Relative activity): 67.6%
activity at 1000 µM ([1]; read-out: Relative activity): 22.9%
transformation of F0 into F1 and F2 [2]: substantially prevented

Cc1cc(=O)oc2cc(NC(=O)[C@H](CCCNC(=N)N)NC(=O)[C@@H]3CCCN3C(=O)CNC(=O)[C@H](C)NC(=O)OC(C)(C)C)ccc12 [Boc-Ala-Gly-Pro-Arg-MCA] (Boc-AGPR-{AMC})
Activity (mU/ml) [3]: 2.5 mU/ml

Cc1cc(=O)oc2cc(NC(=O)[C@H](CCCNC(=N)N)NC(=O)[C@H](C)NC(=O)[C@H](CCC(N)=O)NC(=O)OC(C)(C)C)ccc12 [Boc-Gln-Ala-Arg-MCA] (Boc-Gln-Ala-Arg-{AMC})
Activity (mU/ml) [3]: 32.3 mU/ml

Cc1cc(=O)oc2cc(NC(=O)[C@H](CCCNC(=N)N)NC(=O)[C@H](CCCNC(=N)N)NC(=O)[C@H](CCC(N)=O)NC(=O)OC(C)(C)C)ccc12 [Boc-Gln-Arg-Arg-MCA] (Boc-Gln-Arg-Arg-{AMC})
Activity (mU/ml) [3]: 16.1 mU/ml

Cc1cc(=O)oc2cc(NC(=O)[C@H](CCCNC(=N)N)NC(=O)CNC(=O)[C@H](CCC(N)=O)NC(=O)OC(C)(C)C)ccc12 [Boc-Gln-Gly-Arg-MCA] (Boc-Gln-Gly-Arg-{AMC})
Activity (mU/ml) [3]: 8.1 mU/ml

Cc1cc(=O)oc2cc(NC(=O)[C@H](CCCCN)NC(=O)[C@H](CCCCN)NC(=O)[C@H](CCC(=O)O)NC(=O)OC(C)(C)C)ccc12 [Boc-Glu-Lys-Lys-MCA] (Boc-Glu-Lys-Lys-{AMC})
Activity (mU/ml) [3]: 50.3 mU/ml
cleaving activity of miniplasmin toward the substrate [3]: highest cleaving activity

Cc1cc(=O)oc2cc(NC(=O)[C@H](CCCNC(=N)N)NC(=O)[C@H](CCCCN)NC(=O)CNC(=O)OC(C)(C)C)ccc12 [Boc-Gly-Lys-Arg-MCA] (Boc-Gly-Lys-Arg-{AMC})
Activity (mU/ml) [3]: 3.1 mU/ml

Cc1cc(=O)oc2cc(NC(=O)[C@H](CCCNC(=N)N)NC(=O)[C@H](CCCNC(=N)N)NC(=O)[C@H](CC(C)C)NC(=O)OC(C)(C)C)ccc12 [Boc-Leu-Arg-Arg-MCA] (Boc-Leu-Arg-Arg-{AMC})
Activity (mU/ml) [3]: 3.1 mU/ml

Cc1cc(=O)oc2cc(NC(=O)[C@H](CCCNC(=N)N)NC(=O)[C@@H](NC(=O)[C@H](CC(C)C)NC(=O)OC(C)(C)C)[C@@H](C)O)ccc12 [Boc-Leu-Thr-Arg-MCA] (Boc-Leu-Thr-Arg-{AMC})
Activity (mU/ml) [3]: 3.4 mU/ml

Cc1cc(=O)oc2cc(NC(=O)[C@H](CCCNC(=N)N)NC(=O)[C@H](CO)NC(=O)[C@H](Cc3ccccc3)NC(=O)OC(C)(C)C)ccc12 [Boc-Phe-Ser-Arg-MCA] (Boc-Phe-Ser-Arg-{AMC})
Activity (mU/ml) [3]: 5.0 mU/ml

Cc1cc(=O)oc2cc(NC(=O)[C@H](CCCCN)NC(=O)[C@H](CC(C)C)NC(=O)[C@@H](NC(=O)OC(C)(C)C)C(C)C)ccc12 [Boc-Val-Leu-Lys-MCA] (Boc-Val-Leu-Lys-{AMC})
% (Activity as a percentage of that with Boc-Gln-Ala-Arg-MCA) [4]: 54.8%
Activity (mU/ml) [3]: 17.7 mU/ml

Cc1cc(=O)oc2cc(NC(=O)[C@H](CCCNC(=N)N)NC(=O)[C@@H]3CCCN3C(=O)[C@@H](NC(=O)OC(C)(C)C)C(C)C)ccc12 [Boc-Val-Pro-Arg-MCA] (Boc-Val-Pro-Arg-{AMC})
Activity (mU/ml) [3]: 5.0 mU/ml

Cc1cc(=O)oc2cc(NC(=O)[C@H](CCCNC(=N)N)NC(=O)c3ccccc3)ccc12 [Bz-Arg-MCA]
Activity (mU/ml) [3]: 0.0 mU/ml
cleaving activity of miniplasmin toward the substrate [3]: substantially no cleaving activity

CC(C)C[C@H](NC(=O)[C@@H](NC(=O)N[C@@H](Cc1ccccc1)C(=O)O)C1CCN=C(N)N1)C(=O)N[C@H](C=O)Cc1ccccc1 (some centres unmarked) [Cymostatin]
activity at 10 µM ([1]; read-out: Relative activity): 100%

CC(C)CC(NC(=O)C1OC1C(=O)O)C(=O)NCCCCNC(=N)N (centres unmarked) [E-64]
activity at 10 µM ([1]; read-out: Relative activity): 61.5%

CC(C)C[C@H](NC(=O)N[C@H](C(=O)N[C@@H](CCC(N)=O)C(=O)N[C@@H](C)C=O)[C@@H]1CCNC(=N)N1)C(=O)O [Elastatinal]
activity at 10 µM ([1]; read-out: Relative activity): 69.2%

CC(=O)N[C@@H](CC(C)C)C(=O)N[C@@H](CC(C)C)C(=O)N[C@H](C=O)CCCNC(=N)N [Leupeptin]
inhibition mark (circle / double circle) [1]: ⓞ Leupeptin
activity at 10 µM ([1]; read-out: Relative activity): 18.6%

CC(C)CC(=O)N[C@H](C(=O)N[C@H](C(=O)N[C@@H](CC(C)C)[C@@H](O)CC(=O)N[C@@H](C)C(=O)N[C@@H](CC(C)C)[C@@H](O)CC(=O)O)C(C)C)C(C)C [Pepstatin A] (Isovaleryl-VV[Sta]A[Sta]-OH)
activity at 10 µM ([1]; read-out: Relative activity): 64%

O=S(=O)(F)Cc1ccccc1 [Phenylmethylsulfonyl fluoride]
inhibition mark (circle / double circle) [1]: ○ Phenylmethylsulfonyl fluoride
Relative activity ([1]; 1000 µM): 95.1%
Relative activity ([1]; 10000 µM): 29.5%

CC(C)C[C@H](NP(=O)(O)O[C@@H]1O[C@@H](C)[C@H](O)[C@@H](O)[C@H]1O)C(=O)N[C@@H](Cc1c[nH]c2ccccc12)C(=O)O [Phosphoramidon]
activity at 10 µM ([1]; read-out: Relative activity): 100%

Cc1cc(=O)oc2cc(NC(=O)[C@H](CCCNC(=N)N)NC(=O)[C@H](Cc3ccccc3)NC(=O)[C@@H]3CCCN3)ccc12 [Pro-Phe-Arg-MCA] (H-Pro-Phe-Arg-{AMC})
Activity (mU/ml) [3]: 5.0 mU/ml

Cc1cc(=O)oc2cc(NC(=O)[C@H](Cc3ccccc3)NC(=O)[C@@H]3CCCN3C(=O)[C@H](C)NC(=O)[C@H](C)NC(=O)CCC(=O)O)ccc12 [Suc-Ala-Ala-Pro-Phe-MCA] (Suc-AAPF-{AMC})
Activity (mU/ml) [3]: 0.0 mU/ml

Cc1cc(=O)oc2cc(NC(=O)[C@H](Cc3ccc(O)cc3)NC(=O)[C@@H](NC(=O)[C@H](CC(C)C)NC(=O)[C@H](CC(C)C)NC(=O)CCC(=O)O)C(C)C)ccc12 [Suc-Leu-Leu-Val-Tyr-MCA] (Suc-LLVY-{AMC})
Activity (mU/ml) [3]: 0.0 mU/ml

Boc-Ile-Gln-Gly-Arg-MCA (Boc-IQGR-{AMC})
% (Activity as a percentage of that with Boc-Gln-Ala-Arg-MCA) [4]: 4.8%
Activity (mU/ml) [3]: 1.6 mU/ml
cleaving activity of miniplasmin toward the substrate [3]: substantially no cleaving activity
